Data taken from paper PMC10993414, “Water Quality Monitoring with the Multiplexed Assay MitoOxTox for Mitochondrial Toxicity, Oxidative Stress Response, and Cytotoxicity in AREc32 Cells” (Environmental Science & Technology, 2024).
Where two headings read alike, the source gives them in different places.

Columns and labels:
AREc32 cells [1] = assay: Cytotoxicity with ImageXpress high-content imaging, MitoOxTox
AREc32 cells [2] = assay: Cytotoxicity (cell confluency) with IncuCyte S3 live cell imaging, MitoOxTox
[3] = test system: Nrf2-mediated oxidative stress response pathway (ARE) in AREc32 cells; assay: cells; conditions: Arec32, 24 h, read-out: Oxidative stress response ECIR1.5 (M)
[4] = test system: mitochondrial membrane potential (MMP) in AREc32 cells; assay: Disruption of mitochondrial membrane potential (m-MPI red/green ratio), MitoOxTox; conditions: for SRcytotoxicity: specificity ratio of MMP effect: IC10 (ImageXpress)/EC10 (eq 4)
AREc32 cells [5] = test system: AREc32 cells
[6] = test system: mitochondrial membrane potential (MMP) in AREc32 cells; conditions: for SRcytotoxicity: human
AREc32 cells [7] = conditions: for Cytotoxicity Incucyte IC10: human
[8] = cited from earlier work
[9] = 10% reduction in cell viability, AREc32, 24 h exposure
[10] = logarithm of IC10, AREc32, 24 h exposure, Corning plates
[11] = 10% reduction of MMP, AREc32, 24 h exposure
[12] = logarithm of EC10, AREc32, 24 h exposure

CC1(C)CNC(=NN=C(/C=C/c2ccc(C(F)(F)F)cc2)/C=C/c2ccc(C(F)(F)F)cc2)NC1 [Hydramethylnon]
Cytotoxicity ImageExpress IC10 (AREc32 cells [1]; [9]): 1.11 µM | Cytotoxicity ImageExpress log(IC10 (M)) (AREc32 cells [1]; [10]): -5.96 M | Cytotoxicity Incucyte IC10 (AREc32 cells [2]; [9]): 0.878 µM | EC (induction ratio 1.5) [3]: > 4.04e-05 M | MMP inhibition EC10 [4, 11]: 4.29 µM | MMP inhibition log(EC10 (M)) [4, 12]: -5.37 M

Oc1c(Cl)cc(Cl)c(Cl)c1Cc1c(O)c(Cl)cc(Cl)c1Cl [Hexachlorophene]
Cytotoxicity ImageExpress IC10 (AREc32 cells [5]; human): 10.7 µM | Cytotoxicity ImageExpress log(IC10 (M)) (AREc32 cells [5]; human): -4.97 M | EC (induction ratio 1.5) [3]: > 9.31e-05 M | SRcytotoxicity [6]: 38.6 | Cytotoxicity Incucyte IC10 (AREc32 cells [7]): 5.46 µM | MMP inhibition EC10 [4]: 0.276 µM | MMP inhibition log(EC10 (M)) [4]: -6.56 M

Cc1ccccc1C(=O)Nc1cccc(OC(C)C)c1 [Mepronil]
Cytotoxicity ImageExpress IC10 (AREc32 cells [5]; human, 24 h): 72.9 µM | Cytotoxicity ImageExpress log(IC10 (M)) (AREc32 cells [5]; human, 24 h): -4.14 M | EC (induction ratio 1.5) [3]: > 0.000153 M | Cytotoxicity Incucyte IC10 (AREc32 cells [7]; 24 h): 58.7 µM | log Kow [L/L] ([8]; experimental, ref PhysPropNCCT): 3.66 L/L | MMP inhibition EC10 [4, 11]: 31.2 µM | MMP inhibition log(EC10 (M)) [4, 12]: -4.51 M

N#CC(C#N)=NNc1ccc(OC(F)(F)F)cc1 [Carbonyl cyanide 4-(trifluoromethoxy)phenylhydrazone]
Cytotoxicity ImageExpress IC10 (AREc32 cells [1]; [9]): 1.75 µM | Cytotoxicity ImageExpress log(IC10 (M)) (AREc32 cells [1]; [10]): -5.76 M | Cytotoxicity Incucyte IC10 (AREc32 cells [2]; [9]): 0.824 µM | EC (induction ratio 1.5) [3]: > 6.32e-05 M | log Kow [L/L] ([8]; experimental, ref PhysPropNCCT): 3.68 L/L | MMP inhibition EC10 [4, 11]: 0.0768 µM | MMP inhibition log(EC10 (M)) [4, 12]: -7.11 M | SRcytotoxicity [4]: 22.8

Cc1nn(C)c(Oc2ccccc2)c1C=NOCc1ccc(C(=O)OC(C)(C)C)cc1 [Fenpyroximate]
MMP inhibition EC10 [4, 11]: 0.00069 µM | MMP inhibition log(EC10 (M)) [4, 12]: -9.16 M

CSC1=N[C@@](C)(c2ccccc2)C(=O)N1Nc1ccccc1 [Fenamidone]
Cytotoxicity ImageExpress IC10 (AREc32 cells [5]; human, 24 h): 125 µM | Cytotoxicity ImageExpress log(IC10 (M)) (AREc32 cells [5]; human, 24 h): -3.90 M | EC (induction ratio 1.5) [3]: > 0.000239 M | SRcytotoxicity ([6]; 24 h): 9.5 | Cytotoxicity Incucyte IC10 (AREc32 cells [7]; 24 h): 118 µM | MMP inhibition EC10 [4, 11]: 13.1 µM | MMP inhibition log(EC10 (M)) [4, 12]: -4.88 M

Cc1cc(O)ccc1Cl [4-Chloro-3-methylphenol]
Cytotoxicity ImageExpress IC10 (AREc32 cells [1]): 161 µM | Cytotoxicity ImageExpress log(IC10 (M)) (AREc32 cells [1]): -3.79 M | Cytotoxicity Incucyte IC10 (AREc32 cells [2]): 111 µM | MMP inhibition EC10 [4]: 13.5 µM | MMP inhibition log(EC10 (M)) [4]: -4.87 M

CCCCCc1ccc(O)cc1 [4-Pentylphenol]
Cytotoxicity ImageExpress IC10 (AREc32 cells [1]; [9]): 87.6 µM | Cytotoxicity ImageExpress log(IC10 (M)) (AREc32 cells [1]; [10]): -4.06 M | Cytotoxicity Incucyte IC10 (AREc32 cells [2]; [9]): 57.1 µM | EC (induction ratio 1.5) [3]: > 0.000385 M | log Kow [L/L] ([8]; ref Vaes et al. 1997b): 4.24 L/L | MMP inhibition EC10 [4, 11]: 6.16 µM | MMP inhibition log(EC10 (M)) [4, 12]: -5.21 M | SRcytotoxicity [4]: 14.2

Cc1nc(C(F)(F)F)c(C(=O)Nc2c(Br)cc(OC(F)(F)F)cc2Br)s1 [Thifluzamide]
Cytotoxicity ImageExpress IC10 (AREc32 cells [1]; [9]): 23.4 µM | Cytotoxicity ImageExpress log(IC10 (M)) (AREc32 cells [1]; [10]): -4.63 M | Cytotoxicity Incucyte IC10 (AREc32 cells [2]; [9]): 11.3 µM | EC (induction ratio 1.5) [3]: > 3.16e-05 M | MMP inhibition EC10 [4, 11]: 2.92 µM | MMP inhibition log(EC10 (M)) [4, 12]: -5.53 M | SRcytotoxicity [4]: 8.0

CCCCCC[C@H]1C(=O)O[C@H](C)[C@H](NC(=O)c2cccc(NC=O)c2O)C(=O)O[C@@H](C)[C@@H]1OC(=O)CC(C)C [Antimycin A]
Cytotoxicity ImageExpress IC10 (AREc32 cells [1]; [9]): 43.4 µM | Cytotoxicity ImageExpress log(IC10 (M)) (AREc32 cells [1]; [10]): -4.36 M | Cytotoxicity Incucyte IC10 (AREc32 cells [2]; [9]): 35.9 µM | EC (induction ratio 1.5) [3]: > 0.000129 M | MMP inhibition EC10 [4, 11]: 0.000755 µM | MMP inhibition log(EC10 (M)) [4, 12]: -9.12 M

COc1cc2c(cc1OC)[C@@H]1C(=O)c3ccc4c(c3O[C@@H]1CO2)C=CC(C)(C)O4 [Deguelin]
Cytotoxicity ImageExpress IC10 (AREc32 cells [1]; [9]): 28.8 µM | Cytotoxicity ImageExpress log(IC10 (M)) (AREc32 cells [1]; [10]): -4.54 M | Cytotoxicity Incucyte IC10 (AREc32 cells [2]; [9]): 17.7 µM | EC (induction ratio 1.5) [3]: > 4.08e-05 M | SRcytotoxicity [6]: 2215 | MMP inhibition EC10 [4, 11]: 0.013 µM | MMP inhibition log(EC10 (M)) [4, 12]: -7.89 M

CON=C(C(=O)OC)c1ccccc1CON=C(C)c1cccc(C(F)(F)F)c1 [Trifloxystrobin]
Cytotoxicity ImageExpress log(IC10 (M)) (AREc32 cells [5]): no cytotoxicity | Cytotoxicity ImageExpress IC10 (AREc32 cells [5]; human, 24 h): > 123 µM | EC (induction ratio 1.5) [3]: > 0.000123 M | Cytotoxicity Incucyte log(IC10 (M)) (AREc32 cells [7]): no cytotoxicity | Cytotoxicity Incucyte IC10 (AREc32 cells [7]; 24 h): > 123 µM | log Kow [L/L] ([8]; experimental, ref PhysPropNCCT): 4.50 L/L | MMP inhibition EC10 [4, 11]: 4.11 µM | MMP inhibition log(EC10 (M)) [4, 12]: -5.39 M

N#CC(C#N)=NNc1cccc(Cl)c1 [Carbonyl cyanide 3-chlorophenyl-hydrazone]
Cytotoxicity ImageExpress IC10 (AREc32 cells [1]; [9]): 2.31 µM | Cytotoxicity ImageExpress log(IC10 (M)) (AREc32 cells [1]; [10]): -5.64 M | Cytotoxicity Incucyte IC10 (AREc32 cells [2]; [9]): 1.28 µM | EC (induction ratio 1.5) [3]: > 0.000355 M | log Kow [L/L] ([8]; experimental, ref PhysPropNCCT): 3.38 L/L | MMP inhibition EC10 [4, 11]: 0.247 µM | MMP inhibition log(EC10 (M)) [4, 12]: -6.61 M | SRcytotoxicity [4]: 9.4

CCc1nn(C)c(C(=O)NCc2ccc(C(C)(C)C)cc2)c1Cl [Tebufenpyrad]
Cytotoxicity ImageExpress IC10 (AREc32 cells [1]; [9]): 192 µM | Cytotoxicity ImageExpress log(IC10 (M)) (AREc32 cells [1]; [10]): -3.72 M | Cytotoxicity Incucyte IC10 (AREc32 cells [2]; [9]): 157 µM | EC (induction ratio 1.5) [3]: > 0.000214 M | SRcytotoxicity [6]: 33496 | log Kow [L/L] ([8]; experimental, ref PhysPropNCCT): 4.61 L/L | MMP inhibition EC10 [4, 11]: 0.00573 µM | MMP inhibition log(EC10 (M)) [4, 12]: -8.24 M

CCOCCc1ccc(OCCN=c2[nH]cnc(CC)c2Cl)c(C)c1C [Pyrimidifen]
Cytotoxicity ImageExpress IC10 (AREc32 cells [1]; [9]): 56.1 µM | Cytotoxicity ImageExpress log(IC10 (M)) (AREc32 cells [1]; [10]): -4.25 M | Cytotoxicity Incucyte IC10 (AREc32 cells [2]; [9]): 55.3 µM | EC (induction ratio 1.5) [3]: > 0.000136 M | MMP inhibition EC10 [4, 11]: 0.00271 µM | MMP inhibition log(EC10 (M)) [4, 12]: -8.57 M | SRcytotoxicity [4]: 20693

CCCCOCCO [2-Butoxyethanol]
MMP inhibition log(EC10 (M)) [6, 12]: -1.97 M | log Kow [L/L] ([8]; ref Vaes et al. 1997b): 0.83 L/L | EC10 ([4]; MMP, AREc32, 24 h): 10700 µM

CO/N=C(/C1=NOCCO1)c1ccccc1Oc1ncnc(Oc2ccccc2Cl)c1F [Fluoxastrobin]
Cytotoxicity ImageExpress IC10 (AREc32 cells [1]; [9]): > 153 µM | Cytotoxicity ImageExpress log(IC10 (M)) (AREc32 cells [1]; [10]): no cytotoxicity | Cytotoxicity Incucyte IC10 (AREc32 cells [2]; [9]): 52.1 µM | EC (induction ratio 1.5) [3]: > 0.000153 M | MMP inhibition EC10 [4, 11]: 6.05 µM | MMP inhibition log(EC10 (M)) [4, 12]: -5.22 M

COC(=O)N(OC)c1ccccc1COc1ccn(-c2ccc(Cl)cc2)n1 [Pyraclostrobin]
Cytotoxicity ImageExpress IC10 (AREc32 cells [1]; [9]): 61.4 µM | Cytotoxicity ImageExpress log(IC10 (M)) (AREc32 cells [1]; [10]): -4.21 M | Cytotoxicity Incucyte IC10 (AREc32 cells [2]; [9]): 82.4 µM | EC (induction ratio 1.5) [3]: > 0.000103 M | SRcytotoxicity [6]: 295.0 | log Kow [L/L] ([8]; experimental, ref PhysPropNCCT): 3.99 L/L | MMP inhibition EC10 [4, 11]: 0.208 µM | MMP inhibition log(EC10 (M)) [4, 12]: -6.68 M

COc1ccc2cc3[n+](cc2c1OC)CCc1cc2c(cc1-3)OCO2 [Berberine]
Cytotoxicity ImageExpress IC10 (AREc32 cells [1]; [9]): 72.4 µM | Cytotoxicity ImageExpress log(IC10 (M)) (AREc32 cells [1]; [10]): -4.14 M | Cytotoxicity Incucyte IC10 (AREc32 cells [2]; [9]): 63.5 µM | EC (induction ratio 1.5) [3]: > 0.000135 M | MMP inhibition EC10 [4, 11]: 0.0135 µM | MMP inhibition log(EC10 (M)) [4, 12]: -7.87 M | SRcytotoxicity [4]: 5365

Cc1ccc(-c2c(Cl)nc(C#N)n2S(=O)(=O)N(C)C)cc1 [Cyazofamid]
Cytotoxicity ImageExpress log(IC10 (M)) (AREc32 cells [5]): no cytotoxicity | Cytotoxicity ImageExpress IC10 (AREc32 cells [5]; human, 24 h): > 54.1 µM | EC (induction ratio 1.5) [3]: > 5.41e-05 M | Cytotoxicity Incucyte log(IC10 (M)) (AREc32 cells [7]): no cytotoxicity | Cytotoxicity Incucyte IC10 (AREc32 cells [7]; 24 h): > 54.1 µM | MMP inhibition EC10 [4, 11]: 36.7 µM | MMP inhibition log(EC10 (M)) [4, 12]: -4.44 M

CC(C)(C)c1ccc(CSc2cnn(C(C)(C)C)c(=O)c2Cl)cc1 [Pyridaben]
Cytotoxicity ImageExpress log(IC10 (M)) (AREc32 cells [5]): no cytotoxicity | Cytotoxicity ImageExpress IC10 (AREc32 cells [5]; human, 24 h): > 161 µM | EC (induction ratio 1.5) [3]: > 0.000161 M | Cytotoxicity Incucyte IC10 (AREc32 cells [7]; 24 h): 51.4 µM | log Kow [L/L] ([8]; experimental, ref PhysPropNCCT): 6.37 L/L | MMP inhibition EC10 [4, 11]: 0.00273 µM | MMP inhibition log(EC10 (M)) [4, 12]: -8.56 M
